Columns and labels:
Assay type in all cases: in vivo, Kunming mice
[1] = tested on: MPTP model mice; test: Rotarod test in MPTP model mice; conditions: intragastric for 2 weeks after modeling, 30 mg/kg (rasagiline 1 mg/kg), vs. MPTP group, n=6, FIG. 3
Protocol: Instruction: rotarod test was used to detect the motor coordination ability of mice by recording the time of the mice on the cylindrical rotarod using the rotarod fatigue apparatus. The test was conducted in a quiet and dark environment. The rotarod fatigue apparatus can accommodate five mice at a time for the test. Each mouse has a separate track, with a connected computer software for recording the time when the mouse falls. When the mouse rotates passively with the rotarod for more than two consecutive circles, the timing should also be stopped. Before restraint stress, the mice were trained for a week in advance to adapt, and each mouse was trained for three rounds every time. After restraint stress, the mice were detected once a week, and the parameter was set at a speed ramp from 5 r/min to 30 r/min at a constant rate within 5 min. The time of the mice on the rotarod within 5 min was recorded, and the time exceeding 5 min was recorded as 5 min. Each mouse was detected for 3 rounds each time, and the average value was calculated. The test interval of each group of mice was at least 30 min. Before each change of the mice, the apparatus was cleaned with 75% ethanol to remove the odor before the next group of test.

[2] = tested on: MPTP model mice; test: CatWalk gait analysis in MPTP model mice; conditions: intragastric for 2 weeks after modeling, 30 mg/kg (rasagiline 1 mg/kg), vs. MPTP group, n=6, FIG. 4-7
Text: Instruction: CatWalk gait analysis is a system for analyzing the gait of rodents, including the balance maintenance ability, the use of limbs and the stability analysis of movement state and gait. The main accessories include built-in red LED light panel and green fluorescent glass panel, high-frequency camera under the glass panel, image transmission system and computer software and hardware. Before inspection, the camera height will be adjusted to 60 cm, the effective length and width of the runway will be delimited in the software, and the gain of the camera will be set to 28.12 dB. The process of each mouse passing through the glass plate smoothly was recorded at room temperature, and the longest time was set to 10 s, that is, the data was valid if the mouse passed through the set distance within 10 s. The principle of recording is that the paw prints of mice are illuminated by the fluorescent reflection of the fluorescent lamp in the glass panel, captured by the camera below and transmitted to the computer, and the recorded video data are statistically analyzed by the software of the system. According to the location of paw print, the pressure of paw on the glass panel, the distance between different paw prints, the velocity of mouse gait and the regularity of gait, the gait of mice was qualitatively and quantitatively analyzed. […]

[3] = tested on: MPTP model mice; test: Pole-climbing test in MPTP model mice; conditions: intragastric for 2 weeks after modeling, 30 mg/kg (rasagiline 1 mg/kg), vs. MPTP group, n=6, FIG. 2
Protocol: Administration method: the mice were randomly divided into 6 groups with 6 mice in each group, i.e., the control group, the MPTP model group (intraperitoneal injection of MPTP, 30 mg/kg, established after five days of administration and two days of rest), the MPTP+Fructus lycii extract (water extraction) group (administration after modeling, 30 mg/kg, intragastric administration for two weeks), the MPTP+Fructus lycii polysaccharide group (administration after modeling, 30 mg/kg, intragastric administration for two weeks), the MPTP+Fructus lycii glucopeptide group (administration after modeling, 30 mg/kg, intragastric administration for 2 weeks), the MPTP+rasagiline group (administration after modeling, 1 mg/kg, intragastric administration for 2 weeks). Instruction: the pole-climbing test is a behavioral test to record the time difference of mice on the pole so as to detect the limb movement coordination of mice. The whole experiment was completed in a quiet and dark environment. The pole was composed of an iron frame with a diameter of 1 cm and a height of 60 cm and a small ball with a diameter of 1.5 cm fixed on its top. […] The time required for the mice to climb to the bottom from the beginning was recorded. If the time exceeded 1 minute, it was recorded as 1 minute. Each mouse was tested for 5 rounds each time, and the results were expressed as the average values.

`C#CCN[C@@H]1CCc2ccccc21` [rasagiline, Rasagiline] was tested, and the “on-rod time (anti-fatigue time on the rotarod)” value [1] was “significantly restore the on-rod time”, the “gait behavior (average speed, maximum variation, cadence, number of steps)” value [2] was “significantly restore the gait behavior disorder” and the “pole-climbing time (time to climb from top to bottom of the pole)” value [3] was “significantly shorten the pole-climbing time”.

From patent publication US20250000940A1, “USE OF FRUCTUS LYCII GLUCOPEPTIDE” (NINGXIA QITAI TECHNOLOGY CO., LTD., priority 2021, published 2025)
